# Test results: patent US20180303807A1, “ANDROGEN RECEPTOR LIGANDS” (DUKE UNIVERSITY, priority 2015, published 2018)
# How the values were obtained:
# Assay type in all cases: cell-based
# AR [1] = target: T1, AR (Homo sapiens, UniProt P10275); assay: Reporter gene assay, AR transcriptional (MMTV-Luc) in CV1 cells; conditions: pcDNA-AR + MMTV-Luc, 0.1 nM R1881 plus test compound, 24 hrs, read-out: B1 = AR transcriptional IC50 (μM) in CV1 cells
# T1 construct: expressed in transfected cells; host or cells: CV1 cells
# T1 sequence (P10275 1-920): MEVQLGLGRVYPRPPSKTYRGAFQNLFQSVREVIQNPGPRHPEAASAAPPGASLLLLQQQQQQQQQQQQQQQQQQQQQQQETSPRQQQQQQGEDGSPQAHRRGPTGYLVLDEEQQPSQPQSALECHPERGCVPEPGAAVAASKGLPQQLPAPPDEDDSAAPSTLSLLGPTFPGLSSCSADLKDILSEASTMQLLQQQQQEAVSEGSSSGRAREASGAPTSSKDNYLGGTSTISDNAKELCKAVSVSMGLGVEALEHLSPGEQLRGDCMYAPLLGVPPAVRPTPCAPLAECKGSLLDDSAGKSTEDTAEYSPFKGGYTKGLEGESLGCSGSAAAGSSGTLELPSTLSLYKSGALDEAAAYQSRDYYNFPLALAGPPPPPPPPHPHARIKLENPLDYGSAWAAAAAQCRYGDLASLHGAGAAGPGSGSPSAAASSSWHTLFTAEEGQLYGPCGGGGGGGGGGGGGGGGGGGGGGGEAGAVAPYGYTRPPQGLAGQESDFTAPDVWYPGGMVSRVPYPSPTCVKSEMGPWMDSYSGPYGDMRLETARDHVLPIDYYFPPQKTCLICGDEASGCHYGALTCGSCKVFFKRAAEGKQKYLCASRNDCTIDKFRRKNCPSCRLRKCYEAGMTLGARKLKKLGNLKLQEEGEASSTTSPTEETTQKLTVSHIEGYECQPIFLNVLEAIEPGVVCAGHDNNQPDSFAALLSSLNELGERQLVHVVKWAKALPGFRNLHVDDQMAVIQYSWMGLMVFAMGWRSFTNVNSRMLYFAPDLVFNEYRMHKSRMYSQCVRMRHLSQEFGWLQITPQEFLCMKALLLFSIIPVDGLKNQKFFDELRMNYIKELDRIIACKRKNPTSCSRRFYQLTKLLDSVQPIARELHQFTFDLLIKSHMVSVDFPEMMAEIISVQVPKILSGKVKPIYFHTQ
# Method in brief: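 CV1 cells transiently co-transfected with human AR, MMTV-Luc reporter and Renilla-Luc (transfection efficiency and toxicity read-out), then stimulated 24 h with 0.1 nM R1881 plus increasing test compound concentrations. Firefly and Renilla luciferase quantified by dual-luciferase assay; IC50 derived from concentration-response.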
# AR [2] = assay: Real-time PCR of AR target gene transcription in LNCaP-AR (AR overexpressing) cells, CRPC model; parameters: key to B5 = Relative antagonist activity (plus 0.1 nM R1881) of test compounds (20 μM) in AR overexpressing LNCaP cells (NKX3.1 AR target gene) / B7 = Relative antagonist activity (plus 0.1 nM R1881) of test compounds (20 μM) in AR overexpressing LNCaP cells (PSA AR target gene): a score of 1 indicates higher antagonist efficacy (highly desired activity) than benchmark compound enzalutamide; a score of 2 indicates equal antagonist efficacy to enzalutamide (desirable); a score of 3 indicates antagonist efficacy between enzalutamide and bicalutamide (less desirable activity); a score of 4 indicates antagonist efficacy equal to bicalutamide (liability); a score of 5 indicates antagonist efficacy worse than bicalutamide (liability); key to B4 = Relative agonist activity (no R1881) of test compounds (20 μM) in AR overexpressing LNCaP cells (NKX3.1 AR target gene) / B6 Relative agonist activity (no R1881) of test compounds (20 μM) in AR overexpressing LNCaP cells (PSA AR target gene): a score of 1 indicates less agonism (highly desired activity) than benchmark compound enzalutamide; a score of 2 indicates equal agonism to enzalutamide (desirable); a score of 3 indicates agonism between enzalutamide and bicalutamide (less desirable activity); a score of 4 indicates equal agonism to bicalutamide (liability); a score of 5 indicates higher agonism than bicalutamide (liability); conditions: 20 μM, score vs enzalutamide/bicalutamide; for B4 = Relative agonist activity (no R1881) of test compounds (20 μM) in AR overexpressing LNCaP cells (NKX3.1 AR target gene): no R1881, NKX3.1 gene; for B5 = Relative antagonist activity (plus 0.1 nM R1881) of test compounds (20 μM) in AR overexpressing LNCaP cells (NKX3.1 AR target gene): plus 0.1 nM R1881, NKX3.1 gene; for B7 = Relative antagonist activity (plus 0.1 nM R1881) of test compounds (20 μM) in AR overexpressing LNCaP cells (PSA AR target gene): plus 0.1 nM R1881, PSA gene
# Experimental: Real-Time PCR (CRPC model of AR overexpressing prostate cancer cells, Table 2, B4-B7). LNCaP-AR (AR overexpressing cells) cells were seeded in 12-well plates in RPMI 1640 (8% charcoal-stripped fetal calf serum (CFS)). […] AR target gene transcription (PSA, NKX3.1, FKBP5) was assessed by realtime PCR.
# For B4-B7, scoring system is based on the relative AR target gene agonist/antagonist activity of test compounds when compared to benchmark compounds enzalutamide or bicalutamide. […] The lack of agonist activity is desirable for therapies intended to treat CRPC. For B4 and B6, a score of 1 indicates less agonism (highly desired activity) than benchmark compound enzalutamide, a score of 2 indicates equal agonism to enzalutamide (desirable), a score of 3 indicates agonism between enzalutamide and bicalutamide (less desirable activity), a score of 4 indicates equal agonism to bicalutamide (liability), and a score of 5 indicates higher agonism than bicalutamide (liability). For B5 and B7 a score of 1 indicates higher antagonist efficacy (highly desired activity) than benchmark compound enzalutamide, a score of 2 indicates equal antagonist efficacy to enzalutamide (desirable), a score of 3 indicates antagonist efficacy between enzalutamide and bicalutamide (less desirable activity), a score of 4 indicates antagonist efficacy equal to bicalutamide (liability), and a score of 5 indicates antagonist efficacy worse than bicalutamide (liability) For B9, Compounds that degrade AR (greater than 50% degradation at 10 μM) are indicated.
# CV1 cells = assay: Toxicity of test compound in the CV1 reporter gene assay (Renilla-Luc)
# Experimental: Reporter Gene Assay (IC50 determination, Table 2, B1-B3). CV1 cells were seeded into 96-well cell culture plates and transfected with Lipofectin. For AR transcriptional assays, the DNA mixture consisted of pcDNA-AR, MMTV-Luc (androgen responsive reporter gene), and Renilla-Luc (for assessing transfection efficiency and toxicity). Following overnight incubation, cells were induced with hormone (0.1 nM R1881 (synthetic AR agonist) plus increasing concentrations of test compound) for 24 hrs. Cells were lysed and luciferase activity was quantified using Dual Luciferase Reagent (DLR). IC50 determination was assessed using GraphPad Prism software.
IC50 (AR [1]) [µM],SMILES,B4 = Relative agonist activity (no R1881) of test compounds (20 μM) in AR overexpressing LNCaP cells (NKX3.1 AR target gene) (AR [2]),B6 Relative agonist activity (no R1881) of test compounds (20 μM) in AR overexpressing LNCaP cells (PSA AR target gene) (AR [2]),B5 = Relative antagonist activity (plus 0.1 nM R1881) of test compounds (20 μM) in AR overexpressing LNCaP cells (NKX3.1 AR target gene) (AR [2]),B7 = Relative antagonist activity (plus 0.1 nM R1881) of test compounds (20 μM) in AR overexpressing LNCaP cells (PSA AR target gene) (AR [2]),B2 = % Toxicity of test compound (20 μM) (CV1 cells) [%],B3 = % Toxicity of test compound (60 μM) (CV1 cells) [%]
4.4,"O=C1CCCC2=C1C(c1ccc([N+](=O)[O-])cc1)c1c(ccc3ccccc13)N2 (stereo not drawn) [Compound A1, 12-(4-nitrophenyl)-8,9,10,12-tetrahydrobenzo[a]acridin-11(7H)-one]",1,1,2,2,32,87
2.6,CC1CC(=O)C2=C(C1)Nc1ccc3ccccc3c1C2c1ccc(F)cc1 (stereo not drawn) [Compound A4],1,1,1,1,0,51
5.7,O=C1CCCC2=C1Nc1ccc3ccccc3c1C2c1ccc([N+](=O)[O-])cc1 (stereo not drawn) [Compound A10],2,1,2,1,17,88
